# Reference: patent publication US6737383B1, “Herbicidal oxadiazolidines” (priority 1999, dated 2004)
# Key:
# black nightshade = test: Test E black nightshade; assay type: in vivo, Solanum nigra; conditions: Postemergence
# Procedure, shortened: (§1)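 Greenhouse test: for postemergence, foliar application at 1- to 4-leaf stage; compound in non-phytotoxic solvent with surfactant. Rating is visual, relative to untreated controls, about 21 to 28 days after treatment.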
# jointed goatgrass = test: Test E jointed goatgrass; assay type: in vivo, Aegilops cylindrica; conditions: Postemergence
# Procedure, shortened: as §1
# lambsquarters = test: Test E lambsquarters; assay type: in vivo, Chenopodium album; conditions: Postemergence
# Method: (§2) Compounds evaluated in this test were formulated in a non-phytotoxic solvent mixture which included a surfactant and applied to plants that were in the 1- to 4-leaf stage (postemergence application). A mixture of sandy loam soil and greenhouse potting mix in a 60:40 ratio was used for the postemergence test.
# (§3) Plantings of these crops and weed species were adjusted to produce plants of appropriate size for the postemergence test. All plant species were grown using normal greenhouse practices. Crop and weed species include annual bluegrass (Poa annua), blackgrass (Alopecurus myosuroides), black nightshade (Solanum nigra), chickweed (Stellaria media), common poppy (Papaver rhoeas), deadnettle (Lamium amplexicaule), downy brome (Bromus tectorum), field violet (Viola arvensis), galium (Galium aparine), green foxtail (Setaria viridis), Italian ryegrass (Lolium multiflorum), jointed goatgrass (Aegilops cylindrica), kochia (Kochia scoparia), lambsquarters (Chenopodium album), littleseed canarygrass (Phalaris minor), rape (Brassica napus), redroot pigweed (Amaranthus retroflexus), Russian thistle (Salsola kali), scentless chamomile (Matricaria inodora), spring barley (Hordeum vulgare), sugar beet (Beta vulgaris), sunflower (Helianthus annuus), ivyleaf speedwell (Veronica hederaefolia), spring wheat (Triticum aestivum), winter wheat (Triticum aestivum), wild buckwheat (Polygonum convolvulus), wild mustard (Sinapis arvensis), wild oat (Avena fatua), windgrass (Apera spica-venti) and winter barley (Hordeum vulgare).
# (§4) Treated plants and untreated controls were maintained in a greenhouse for approximately 21 to 28 days, after which all treated plants were compared to untreated controls and visually evaluated. […] A dash response (-) means no test result.
# spring barley [1] = test: Test E spring barley; assay type: in vivo, Hordeum vulgare; conditions: Postemergence
# Method: as §2, §3, §4
# wild buckwheat = test: Test E wild buckwheat; assay type: in vivo, Polygonum convolvulus; conditions: Postemergence
# Procedure, shortened: as §1
# wild mustard = test: Test E wild mustard; assay type: in vivo, Sinapis arvensis; conditions: Postemergence
# Method: […] A mixture of sandy loam soil and greenhouse potting mix in a 60:40 ratio was used for the postemergence test.
# as §3, §4
# winter barley = test: Test E winter barley; assay type: in vivo, Hordeum vulgare; conditions: Postemergence
# Method: as §2, §3, §4
# deadnettle = test: Test E deadnettle; assay type: in vivo, Lamium amplexicaule; conditions: Preemergence
# downy brome = test: Test E downy brome; assay type: in vivo, Bromus tectorum; conditions: Preemergence
# spring barley [2] = test: Test E spring barley; assay type: in vivo, Hordeum vulgare; conditions: Preemergence
# sunflower = test: Test E sunflower; assay type: in vivo, Helianthus annuus; conditions: Preemergence
# barnyardgrass = test: Test C postemergence barnyardgrass; assay type: in vivo, Echinochloa crus-galli; conditions: 0 to 100 scale, 0 no effect, 100 complete control
# Procedure, shortened: (§5)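 Compounds in a non-phytotoxic solvent mixture with surfactant were sprayed postemergence on greenhouse-grown plants sized for treatment, in 60:40 sandy loam soil:potting mix. After about 14 to 21 days, injury was rated visually against untreated controls on a 0–100 scale (0 no effect, 100 complete control).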
# ivyleaf morningglory = test: Test C postemergence ivyleaf morningglory; assay type: in vivo, Ipomoea hederacea; conditions: 0 to 100 scale, 0 no effect, 100 complete control
# Procedure, shortened: as §5
# purple nutsedge = test: Test C postemergence purple nutsedge; assay type: in vivo, Cyperus rotundus; conditions: 0 to 100 scale, 0 no effect, 100 complete control
# Method: as §2, with “grown for various periods of time before treatment” for “in the 1- to 4-leaf stage”
# (§6) Plantings of these crops and weed species were adjusted to produce plants of appropriate size for the postemergence test. All plant species were grown using normal greenhouse practices. Crop and weed species include arrowleaf sida (Sida rhombifolia), barnyardgrass (Echinochloa crus-galli), cocklebur (Xanthium strumarium), common ragweed (Ambrosia elatior), corn (Zea mays), cotton (Gossypium hirsutum), eastern black nightshade (Solanum ptycanthum), fall panicum (Panicum dichotomiflorum), field bindweed (Convolvulus arvensis), giant foxtail (Setaria faberii), hairy beggarticks (Bidens pilosa), ivyleaf morningglory (Ipomoea hederacea), johnsongrass (Sorghum halepense), ladysthumb smartweed (Polygonum persicaria), lambsquarters (Chenopodium album), large crabgrass (Digitaria sanguinalis), purple nutsedge (Cyperus rotundus), redroot pigweed (Amaranthus retroflexus), soybean (Glycine max), surinam grass (Brachiaria decumbens), velvetleaf (Abutilon theophrasti) and wild poinsettia (Euphorbia heterophylla).
# (§7) Treated plants and untreated controls were maintained in a greenhouse for approximately 14, to 21 days, after which all treated plants were compared to untreated controls and visually evaluated. Plant response ratings, summarized in Table C, were based upon a 0 to 100 scale where 0 was no effect and 100 was complete control. A dash response (−) means no test result.
# soybean = test: Test C postemergence soybean; assay type: in vivo, Glycine max; conditions: 0 to 100 scale, 0 no effect, 100 complete control
# Method: as §2, with “grown for various periods of time before treatment” for “in the 1- to 4-leaf stage”
# as §6, §7
# surinam grass = test: Test C postemergence surinam grass; assay type: in vivo, Brachiaria decumbens; conditions: 0 to 100 scale, 0 no effect, 100 complete control
# Method: as §2, with “grown for various periods of time before treatment” for “in the 1- to 4-leaf stage”
# as §6, §7
# [3] = Rate 250 g/ha, 0 to 100 scale (0 no effect, 100 complete control)
# [4] = Rate 500 g/ha, 0 to 100 scale, 0 no effect, 100 complete control
# [5] = Rate 125 g/ha, 0 to 100 scale (0 no effect, 100 complete control)
# [6] = Rate 500 g/ha, 0 to 100 scale where 0 is no effect and 100 is complete control
# [7] = Rate 250 g/ha, 0 to 100 scale where 0 is no effect and 100 is complete control
smiles,measurement,setting,value
CC(C)N(C(=O)n1oc(=O)n(C(C)C)c1=O)c1ccc(Cl)cc1 [Compound 114],"Plant response rating, Blk nightshade","black nightshade; Rate 125 g/ha, 0 to 100 scale",50
same,"Plant response rating, Blk nightshade",black nightshade; [3],40
same,"Plant response rating, Blk nightshade",black nightshade; [4],80
same,"Plant response rating, Jointed goatgra","jointed goatgrass; Rate 125 g/ha, 0 to 100 scale",15
same,"Plant response rating, Jointed goatgra",jointed goatgrass; [3],5
same,"Plant response rating, Jointed goatgra",jointed goatgrass; [4],50
same,"Plant response rating, Lambsquarters","lambsquarters; Rate 125 g/ha, 0 to 100 scale",30
same,"Plant response rating, Lambsquarters",lambsquarters; [3],30
same,"Plant response rating, Lambsquarters",lambsquarters; [4],40
same,"Plant response rating, Spring Barley","spring barley [1]; Rate 125 g/ha, 0 to 100 scale",20
same,"Plant response rating, Spring Barley",spring barley [1]; [3],30
same,"Plant response rating, Spring Barley",spring barley [1]; [4],35
same,"Plant response rating, Wild buckwheat","wild buckwheat; Rate 125 g/ha, 0 to 100 scale",20
same,"Plant response rating, Wild buckwheat",wild buckwheat; [3],30
same,"Plant response rating, Wild buckwheat",wild buckwheat; [4],30
same,"Plant response rating, Wild mustard","wild mustard; Rate 125 g/ha, 0 to 100 scale",75
same,"Plant response rating, Wild mustard",wild mustard; [3],50
same,"Plant response rating, Wild mustard",wild mustard; [4],70
same,"Plant response rating, Barley (winter)","winter barley; Rate 125 g/ha, 0 to 100 scale",5
same,"Plant response rating, Barley (winter)",winter barley; [3],10
same,"Plant response rating, Barley (winter)",winter barley; [4],20
same,"Plant response rating, Deadnettle",deadnettle; [5],20
same,"Plant response rating, Deadnettle","deadnettle; Rate 250 g/ha, 0 to 100 scale",20
same,"Plant response rating, Deadnettle",deadnettle; [6],20
same,"Plant response rating, Downy brome",downy brome; [5],10
same,"Plant response rating, Downy brome","downy brome; Rate 250 g/ha, 0 to 100 scale",60
same,"Plant response rating, Downy brome",downy brome; [6],50
same,"Plant response rating, Spring Barley",spring barley [2]; [5],0
same,"Plant response rating, Spring Barley","spring barley [2]; Rate 250 g/ha, 0 to 100 scale",0
same,"Plant response rating, Spring Barley",spring barley [2]; [6],20
same,"Plant response rating, Sunflower",sunflower; [5],0
same,"Plant response rating, Sunflower","sunflower; Rate 250 g/ha, 0 to 100 scale",0
same,"Plant response rating, Sunflower",sunflower; [6],5
CCn1c(=O)on(C(=O)N(c2ccccc2)C(C)C)c1=O [Compound 117],"Plant response rating, Barnyardgrass",barnyardgrass; Rate 140 g/ha,70
same,"Plant response rating, Barnyardgrass",barnyardgrass; Rate 280 g/ha,80
same,"Plant response rating, Barnyardgrass",barnyardgrass; Rate 560 g/ha,90
same,"Plant response rating, Barnyardgrass",barnyardgrass; Rate 1120 g/ha,90
same,Plant response rating I. morningglory,ivyleaf morningglory; Rate 140 g/ha,0
same,Plant response rating I. morningglory,ivyleaf morningglory; Rate 280 g/ha,0
same,Plant response rating I. morningglory,ivyleaf morningglory; Rate 560 g/ha,0
same,Plant response rating I. morningglory,ivyleaf morningglory; Rate 1120 g/ha,0
same,"Plant response rating, Purple nutsedge",purple nutsedge; Rate 140 g/ha,0
same,"Plant response rating, Purple nutsedge",purple nutsedge; Rate 280 g/ha,0
same,"Plant response rating, Purple nutsedge",purple nutsedge; Rate 560 g/ha,10
same,"Plant response rating, Purple nutsedge",purple nutsedge; Rate 1120 g/ha,80
same,"Plant response rating, Soybean",soybean; Rate 140 g/ha,10
same,"Plant response rating, Soybean",soybean; Rate 280 g/ha,35
same,"Plant response rating, Soybean",soybean; Rate 560 g/ha,40
same,"Plant response rating, Soybean",soybean; Rate 1120 g/ha,60
same,"Plant response rating, Surinam grass",surinam grass; Rate 140 g/ha,0
same,"Plant response rating, Surinam grass",surinam grass; Rate 280 g/ha,0
same,"Plant response rating, Surinam grass",surinam grass; Rate 560 g/ha,40
same,"Plant response rating, Surinam grass",surinam grass; Rate 1120 g/ha,90
CC(C)N(C(=O)n1oc(=O)n(C(C)C)c1=O)c1ccc(F)cc1 [Compound 131],"Plant response rating, Barnyardgrass",barnyardgrass; Rate 140 g/ha,70
same,"Plant response rating, Barnyardgrass",barnyardgrass; Rate 280 g/ha,70
same,"Plant response rating, Barnyardgrass",barnyardgrass; Rate 560 g/ha,95
same,"Plant response rating, Barnyardgrass",barnyardgrass; Rate 1120 g/ha,95
same,Plant response rating I. morningglory,ivyleaf morningglory; Rate 140 g/ha,0
same,Plant response rating I. morningglory,ivyleaf morningglory; Rate 280 g/ha,0
same,Plant response rating I. morningglory,ivyleaf morningglory; Rate 560 g/ha,20
same,Plant response rating I. morningglory,ivyleaf morningglory; Rate 1120 g/ha,50
same,"Plant response rating, Purple nutsedge",purple nutsedge; Rate 140 g/ha,0
same,"Plant response rating, Purple nutsedge",purple nutsedge; Rate 280 g/ha,0
same,"Plant response rating, Purple nutsedge",purple nutsedge; Rate 560 g/ha,0
same,"Plant response rating, Purple nutsedge",purple nutsedge; Rate 1120 g/ha,80
same,"Plant response rating, Soybean",soybean; Rate 140 g/ha,20
same,"Plant response rating, Soybean",soybean; Rate 280 g/ha,25
same,"Plant response rating, Soybean",soybean; Rate 560 g/ha,30
same,"Plant response rating, Soybean",soybean; Rate 1120 g/ha,45
same,"Plant response rating, Surinam grass",surinam grass; Rate 140 g/ha,0
same,"Plant response rating, Surinam grass",surinam grass; Rate 280 g/ha,80
same,"Plant response rating, Surinam grass",surinam grass; Rate 560 g/ha,85
same,"Plant response rating, Surinam grass",surinam grass; Rate 1120 g/ha,90
same,"Plant response rating, Blk nightshade","black nightshade; Rate 62 g/ha, 0 to 100 scale",50
same,"Plant response rating, Blk nightshade","black nightshade; Rate 125 g/ha, 0 to 100 scale",50
same,"Plant response rating, Blk nightshade",black nightshade; [4],70
same,Blk nightshade plant response rating,black nightshade; [7],60
same,"Plant response rating, Jointed goatgra","jointed goatgrass; Rate 62 g/ha, 0 to 100 scale",30
same,"Plant response rating, Jointed goatgra","jointed goatgrass; Rate 125 g/ha, 0 to 100 scale",0
same,"Plant response rating, Jointed goatgra",jointed goatgrass; [4],60
same,Jointed goatgra plant response rating,jointed goatgrass; [7],0
same,"Plant response rating, Lambsquarters","lambsquarters; Rate 62 g/ha, 0 to 100 scale",0
same,"Plant response rating, Lambsquarters","lambsquarters; Rate 125 g/ha, 0 to 100 scale",0
same,"Plant response rating, Lambsquarters",lambsquarters; [4],0
same,Lambsquarters plant response rating,lambsquarters; [7],0
same,"Plant response rating, Spring Barley","spring barley [1]; Rate 62 g/ha, 0 to 100 scale",5
same,"Plant response rating, Spring Barley","spring barley [1]; Rate 125 g/ha, 0 to 100 scale",0
same,"Plant response rating, Spring Barley",spring barley [1]; [4],20
same,Spring Barley plant response rating,spring barley [1]; [7],0
same,"Plant response rating, Wild buckwheat","wild buckwheat; Rate 62 g/ha, 0 to 100 scale",50
same,"Plant response rating, Wild buckwheat","wild buckwheat; Rate 125 g/ha, 0 to 100 scale",0
same,"Plant response rating, Wild buckwheat",wild buckwheat; [4],0
same,Wild buckwheat plant response rating,wild buckwheat; [7],0
same,"Plant response rating, Wild mustard","wild mustard; Rate 62 g/ha, 0 to 100 scale",30
same,"Plant response rating, Wild mustard","wild mustard; Rate 125 g/ha, 0 to 100 scale",0
same,"Plant response rating, Wild mustard",wild mustard; [4],30
same,Wild mustard plant response rating,wild mustard; [7],0
same,"Plant response rating, Barley (winter)","winter barley; Rate 62 g/ha, 0 to 100 scale",5
same,"Plant response rating, Barley (winter)","winter barley; Rate 125 g/ha, 0 to 100 scale",0
same,"Plant response rating, Barley (winter)",winter barley; [4],20
same,Barley (winter) plant response rating,winter barley; [7],0
same,"Plant response rating, Deadnettle",deadnettle; [5],30
same,Deadnettle plant response rating (0 to 100 scale),deadnettle; Rate 250 g/ha,60
same,"Plant response rating, Deadnettle",deadnettle; [6],100
same,"Plant response rating, Downy brome",downy brome; [5],85
same,Downy brome plant response rating (0 to 100 scale),downy brome; Rate 250 g/ha,80
same,"Plant response rating, Downy brome",downy brome; [6],100
same,"Plant response rating, Spring Barley",spring barley [2]; [5],20
same,Spring Barley plant response rating (0 to 100 scale),spring barley [2]; Rate 250 g/ha,70
same,"Plant response rating, Spring Barley",spring barley [2]; [6],85
same,"Plant response rating, Sunflower",sunflower; [5],20
same,Sunflower plant response rating (0 to 100 scale),sunflower; Rate 250 g/ha,20
same,"Plant response rating, Sunflower",sunflower; [6],20
